Experimental data as given in US4314028A, “Fermentation process for producing tallysomycin compounds” (priority 1980, dated 1982).

Key:
[1] = tested on: Aspergillus fumigatus IAM 2593; test: MIC, two-fold agar dilution method; format: cell-based; conditions: Sabouraud agar
Procedure, shortened: (§1)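 For each organism, growth was scored on agar plates carrying doubling concentrations of compound. Bacteria, both gram-positive and acid-fast, grew on nutrient agar, and A. fumigatus grew on Sabouraud agar.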

[2] = tested on: Bacillus subtilis PCI 219; test: MIC, two-fold agar dilution method; format: cell-based; conditions: nutrient agar
Procedure, shortened: as §1

[3] = tested on: Candida albicans IAM 4888; test: MIC, two-fold agar dilution method; format: cell-based; conditions: Sabouraud agar
Procedure, shortened: (§2)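 Agar dilution (2-fold series) on nutrient agar (bacteria) or Sabouraud agar (fungi).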

Escherichia coli NIHJ = test: MIC, two-fold agar dilution method; format: cell-based; conditions: nutrient agar
Procedure, shortened: as §2

Mycobacterium 607 = test: MIC, two-fold agar dilution method; format: cell-based; conditions: nutrient agar
Procedure, shortened: as §1

Proteus mirabilis A9554 = test: MIC, two-fold agar dilution method; format: cell-based; conditions: nutrient agar
Procedure, shortened: as §2

Sarcina lutea PCI1001 = test: MIC, two-fold agar dilution method; format: cell-based; conditions: nutrient agar
Procedure, shortened: as §1

[4] = tested on: Staphylococcus aureus Smith; test: MIC, two-fold agar dilution method; format: cell-based; conditions: nutrient agar
Procedure, shortened: as §1

[5] = tested on: Mycobacterium smegmatis strain M6-3; test: Relative antibacterial potency, paper-disc agar diffusion method; format: cell-based; conditions: relative to tallysomycin A standard=1000 mcg/mg
Procedure: The relative antibacterial potencies (tallysomycin A standard=1000 mcg/mg) of the tallysomycin derivatives were determined by the paper-disc agar diffusion method using Mycobacterium smegmatis strain M6-3 as the assay organism.

[6] = tested on: lysogenic bacterium E. coli W1709 (λ); test: Prophage induction of lysogenic bacterium (ILB activity); format: cell-based; conditions: t/c ratio of plaque counts greater than 3.0
Procedure, shortened: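 Plaques counted on agar plates containing test compound and on control plates, following Lein et al. A test/control plaque ratio above 3.0 counted as significant. Value given as the minimum inducible concentration.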

Sarcoma 180 = test: animal or person; format: in vivo, dd-strain mice; conditions: copper-chelated form unless otherwise stated
Procedure, shortened: (§3)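 P388 (3×10^5 cells) and Lewis lung (5×10^5) i.p. in BDF1 mice, B16 (5×10^5) s.c. in BDF1, Sarcoma 180 ([…]) i.p. in male dd mice. ED125 (Sarcoma 180 ED150) from median-survival T/C, 45 days; B16 ID50 from day-16 tumor size.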

Melanotic melanoma B16 = test: Antitumor activity in mice, melanotic melanoma B16; format: in vivo, BDF1 mice; conditions: copper-chelated form unless otherwise stated
Procedure, shortened: as §3

[7] = Acute toxicity, single dose LD50; format: in vivo, dd mice; conditions: ip, 30 days observation, copper-chelated form unless otherwise stated
Procedure: Graded doses of test compounds were administered intraperitoneally to groups of dd mice. The injection was given one time only or once daily for 9 consecutive days. Death or survival of the animals was recorded for 30 days after the last dose of test compound to calculate the single or multiple median lethal dose (LD50).

[8] = Nephrotoxicity in a mouse model utilizing BUN measurement; format: in vivo; conditions: compared with bleomycin at equitoxic doses
malignant tumors = test: Initial studies using experimental animals: antitumor activity; format: in vivo; conditions: broad spectrum of malignant tumors; copper-free and copper-chelated forms
[9] = in vivo
[10] = in vivo; remark: listed apart in the source

Cc1c(N)nc([C@H](CC(N)=O)NC[C@H](N)C(N)=O)nc1C(=O)N[C@H](C(=O)N[C@H](C)[C@@H](O)CC(=O)N[C@H](C(=O)NC(O[C@@H]1O[C@@H](C)[C@@H](N)[C@@H](O)[C@H]1O)C(O)c1nc(-c2nc(C(=O)NCCCCN)cs2)cs1)[C@@H](C)O)[C@@H](O[C@@H]1O[C@@H](CO)[C@@H](O)[C@H](O)[C@@H]1O[C@H]1O[C@H](CO)[C@@H](O)[C@H](OC(N)=O)[C@@H]1O)c1cnc[nH]1 (stereo partly drawn) [Tallysomycin S10b]
minimum inhibitory concentration (MIC) [1]: 6.3
minimum inhibitory concentration (MIC) [2]: 0.2
minimum inhibitory concentration (MIC) [3]: 12.5
minimum inhibitory concentration (MIC) (Escherichia coli NIHJ): 0.8
minimum inhibitory concentration (MIC) (Mycobacterium 607): 0.2
minimum inhibitory concentration (MIC) (Proteus mirabilis A9554): 3.1
minimum inhibitory concentration (MIC) (Sarcina lutea PCI1001): 3.1
minimum inhibitory concentration (MIC) [4]: 6.3
Antibacterial potency [5]: 1,100 μ/mg
ILB activity (minimum inducible concentration) [6]: 0.31 µg/mL
Antitumor activity S180 (ED150) (Sarcoma 180; ip, once daily 9 days, effective dose 150, survival): 0.03 mg/kg/day
Antitumor therapeutic index S180 (Sarcoma 180; single dose LD50/ED150): 900
Antitumor activity B16 (ID50) (Melanotic melanoma B16; ip, once daily 9 days, 50% inhibition of tumor growth, day 16, 23040 min): 0.59 mg/kg/day
Antitumor therapeutic index B16 (Melanotic melanoma B16; single dose LD50/ID50): 46
LD50 single dose [7]: 27 mg/kg/day
toxicity to the kidney (BUN) [8]: no greater than that of bleomycin at equitoxic doses
antitumor activity (malignant tumors): excellent antitumor activity against a broad spectrum of malignant tumors
dose response slope, lung hydroxyproline [9]: flatter than that observed with bleomycin
hydroxyproline content at high doses [9]: reduced compared to that of animals treated with bleomycin at equitoxic doses
lung hydroxyproline [9]: caused an increase in lung hydroxyproline suggesting pulmonary toxicity
undesirable side effects (e.g. nephrotoxicity) [10]: less undesirable side effects (e.g. nephrotoxicity) than the naturally-occurring tallysomycin A and B
